In article PMC9490829, “Elucidation of Structure–Activity Relationships in Indolobenzazepine-Derived Ligands and Their Copper(II) Complexes: the Role of Key Structural Components and Insight into the Mechanism of Action” (Inorganic Chemistry, 2022):
Like-named read-outs stand apart in the source and are kept apart here.

How the values were obtained:
[1] = system: MDA-MB-231 cells; assay: MTT antiproliferative assay, MDA-MB-231; type: cell-based, human; conditions: exposure 72 h, read-out: 50% inhibitory concentration (IC50) MDA-MB-231
Protocol: (§1) The in vitro antiproliferative activity of novel organic compounds HL^1–HL^4 and corresponding copper(II) complexes 1–4 was tested in the breast cancer cell line MDA-MB-231, hepatocellular carcinoma cell line LM3, and human embryonic kidney cell line HEK293 and then compared to those of the previously reported paullones HL^5–HL^7 and copper(II) complexes 5–7,[39],[44] as well as latonduines HL^8–HL^11 and copper(II) complexes 8–11.[34] […] The in vitro anticancer activity was determined by the colorimetric MTT assay with an exposure time of 72 h.
(§2) Human breast adenocarcinoma MDA-MB-231 and human embryonic kidney HEK293 cells were obtained from ATCC. Hepatocellular carcinoma LM3 cells were a kind gift of Prof. Kan Man Hui (Duke-NUS Medical School). All cells were cultured in DMEM medium containing 10% FBS in tissue culture 75 cm^2 flasks (BDBiosciences, Singapore) at 37 °C in a humidified atmosphere of 95% air and 5% CO2. All stock solutions were prepared in DMSO. The amount of actual Cu concentration in stock solutions was verified by ICP-OES.
(§3) The cytotoxicity of the compounds was determined by the colorimetric MTT assay. The cells were harvested from culture flasks by trypsinization and seeded into CELLSTAR 96-well microculture plates at the seeding density of 6000 cells per well (6 × 10^4 cells/mL). […] Optical densities were measured at 570 nm using the BioTekH1 Synergy microplate reader. […]

[2] = system: HEK293 cells; assay: MTT assay, noncancerous HEK293; type: cell-based, human; conditions: exposure 72 h, read-out: 50% inhibitory concentration (IC50) HEK293
Protocol: as §1, §2, §3

[3] = Solution stability (UV-vis, ESI-MS, 1H NMR); type: physicochemical; conditions: aqueous solution containing 1% DMSO, 72 h
Protocol: First, UV–vis kinetic studies were performed with the ligands HL^2 and HL^4 (Figure S30) and the copper(II) complexes 1–4 in aqueous solutions containing 1% DMSO (Figures S31 and 32). Additionally, the stability of the copper(II) complex 4 was also measured in phosphate-buffered saline (PBS) (pH ∼ 7.4) containing 3% DMSO over 24 h. […] Additional peaks which could be assigned to the dissociated ligand or any its fragments due to a hypothetical ligand degradation have not been registered. In addition to UV–vis data, the stability and purity of complex 4 were tested by analytical HPLC-HR ESI MS using methanol or acetonitrile with 0.1% formic acid as the eluent over 10 min. A single peak at around 1 min corresponding to [Cu^II(L^4)]^+ (found m/z = 506.9939 (Figure S23), calcd m/z for C23H17BrCuN5 507.0063) was registered in agreement with other experiments. In addition, the stability of HL^4 in 1:1 DMSO-d6/D2O at 25 °C was monitored by ^1H NMR spectroscopy. […] In addition, solution stability of the lead complex 4 was studied in ethanol-cell culture medium (1:1 v/v) by monitoring the electronic absorption spectra in the visible region within a time period of 8 h (Figure S34, Supporting Information).

[4] = system: LM3 cells; assay: MTT antiproliferative assay, LM3; type: cell-based; conditions: exposure 72 h, read-out: 50% inhibitory concentration (IC50) LM3
Protocol: as §1, §2, §3

[5] = system: LM3 cells; parameters: method as in PMID 34995063; conditions: MTT assay, exposure 72 h; read-out: 50% inhibitory concentration (IC50) LM3; cited from earlier work
[6] = system: HEK293 cells; parameters: method as in doi:10.1021/acs.organomet.9b00229; conditions: MTT assay, exposure 72 h; read-out: 50% inhibitory concentration (IC50) HEK293; cited from earlier work
[7] = system: MDA-MB-231 cells; parameters: method as in PMID 34995063; conditions: MTT assay, exposure 72 h; read-out: 50% inhibitory concentration (IC50) MDA-MB-231; cited from earlier work

## C(=N\N=C1/NCc2ccccc2-c2[nH]c3ccccc3c21)/c1ccccn1 [HL^1]
[1]
  IC50: 1500 ± 100 nM
[2]
  IC50: 2000 ± 100 nM
[3]
  stability by UV–vis absorption spectra: no changes in the UV–vis absorption spectra over 72 h
[4]
  IC50: 1400 ± 200 nM

## N.N.[Cl][Pt][Cl] [cisplatin]
[5]
  IC50: 10000 ± 3000 nM
[6]
  IC50: 3400 ± 1100 nM
[7]
  IC50: 21000 ± 5000 nM
